From PubChem BioAssay (NCI) come the findings set out here.

“And” between values parts separate entries of the source, which are not always exact repeats. Identical values can stand only once.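 In this assay, cells in 96-well plates receive the compound at five concentrations for 48 hours. Endpoints are linearly interpolated between the surrounding concentrations. GI50 is the concentration that inhibits growth by half. TGI: total growth inhibition.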 Bounds are passed on as bounds.

Some test systems named below: SF-295 CNS; A498 renal; M14 melanoma; NCI-H226 lung; MDA-MB-231 breast; MCF7 breast; SF-539 CNS; MOLT-4 leukemia; NCI-H23 lung; HCT-15 colon.
Holding throughout (experiment): growth of human tumour cells (NCI), 48 h

For `COc1ccc2c(Oc3ccc(NC(=O)c4c(C)n(CC(C)(C)O)n(-c5ccccc5)c4=O)nc3)ccnc2c1`, the GI50 in the assay with SF-295 CNS was 0.654 µM; in the assay on A498 renal it was 4.41 µM; with M14 melanoma, 6.29 µM; in the assay on NCI-H226 lung it was 16.2 µM; in the assay on MDA-MB-231 breast, 8.92 µM; with MCF7 breast, 26.2 µM. For the same compound, the GI50 with SF-539 CNS is 5.85 µM; in the assay on MOLT-4 leukemia it was 9.07 µM; with NCI-H23 lung it was 18.4 µM; in the assay with HCT-15 colon, 6.75 µM. Further, the TGI with SF-295 CNS is 12.7 µM; in the assay on A498 renal, 85.1 µM; in the assay with M14 melanoma it was over 100 µM; in the assay with NCI-H226 lung it was over 78 µM; in the assay on MDA-MB-231 breast, over 93.5 µM; in the assay on MCF7 breast it was 97.7 µM. For the same compound, the TGI with SF-539 CNS was 50.9 µM; with MOLT-4 leukemia it was over 100 µM; in the assay with NCI-H23 lung, over 100 µM; in the assay with HCT-15 colon, over 100 µM.
For the compound `O=c1[nH]c(=O)n([C@H]2CCCO2)cc1F`, the GI50 with SF-295 CNS was over 4530 µM; in the assay on A498 renal, over 2170 µM; in the assay on M14 melanoma it was 1450 µM; in the assay on NCI-H226 lung, 3650 µM; with MCF7 breast, 575 µM; in the assay with SF-539 CNS it was 374 µM. Also, the GI50 in the assay on MOLT-4 leukemia is over 3500 µM; in the assay with NCI-H23 lung, 936 µM; with HCT-15 colon, 1050 µM. For the same compound, the TGI in the assay with SF-295 CNS is over 5000 µM; with A498 renal, 979 µM and > 5000 µM; with M14 melanoma, over 5000 µM; in the assay on NCI-H226 lung, 720 µM and > 5000 µM; in the assay with MDA-MB-231 breast, over 5000 µM; in the assay with MCF7 breast it was over 5000 µM. Moreover, the TGI with SF-539 CNS is 864 µM and 3520 µM; in the assay with MOLT-4 leukemia, over 5000 µM; in the assay with NCI-H23 lung, over 5000 µM; in the assay on HCT-15 colon, over 5000 µM.
Consider `C=C1CC[C@@H](C(C)C)C[C@@H]2[C@H]([C@H](O)C[C@]2(C)O)[C@@]2(C)CC[C@@H]1O2`, for which the GI50 in the assay with SF-295 CNS is 14.7 µM; with A498 renal, 26 µM; in the assay with M14 melanoma, 19.3 µM; in the assay on NCI-H226 lung it was 16.8 µM; with MDA-MB-231 breast, 13.9 µM; with MCF7 breast, 16.2 µM. Besides, the GI50 with SF-539 CNS is 24.4 µM; in the assay on MOLT-4 leukemia it was 22.8 µM; in the assay on NCI-H23 lung, 20.1 µM; in the assay with HCT-15 colon, 14.6 µM. For the same compound, the TGI is 32.3 µM with SF-295 CNS; 42.9 µM in the assay on A498 renal; 33.4 µM with M14 melanoma; 31.5 µM with NCI-H226 lung; 28 µM in the assay on MDA-MB-231 breast; 29.7 µM in the assay on MCF7 breast. Further, the TGI turned out to be 43.3 µM with SF-539 CNS, 51.2 µM in the assay on MOLT-4 leukemia, 42.7 µM with NCI-H23 lung and 27.7 µM in the assay with HCT-15 colon.
In the case of `O=C(N/N=C/c1c(Cl)cccc1Cl)c1ccc(C(F)(F)F)nc1Nc1cccc(C(F)(F)F)c1`, the GI50 was 1.16 µM in the assay on SF-295 CNS; 0.603 µM in the assay on A498 renal; 1.6 µM with M14 melanoma; 1.53 µM in the assay with NCI-H226 lung; 1.51 µM in the assay with MDA-MB-231 breast; 1.03 µM in the assay on MCF7 breast. Besides, the GI50 was 2.11 µM with SF-539 CNS, 0.394 µM with MOLT-4 leukemia, 1.42 µM in the assay with NCI-H23 lung and 0.437 µM in the assay with HCT-15 colon. The TGI in the assay on SF-295 CNS was over 29.2 µM; in the assay with A498 renal it was 2.39 µM; in the assay with M14 melanoma it was over 31.1 µM; with NCI-H226 lung, 6.74 µM; with MDA-MB-231 breast, 11.1 µM; with MCF7 breast, over 35.8 µM. Moreover, the TGI in the assay with SF-539 CNS is 8.09 µM; in the assay with MOLT-4 leukemia, 7.7 µM; in the assay with NCI-H23 lung, over 21.8 µM; with HCT-15 colon, over 100 µM.
With `C[C@]12CC[C@@H]3c4ccc(O)c([N+](=O)[O-])c4CC[C@H]3[C@@H]1CC[C@@H]2NS(=O)(=O)c1cccc(Br)c1`, the GI50 with SF-295 CNS was 1.68 µM; in the assay with A498 renal it was 2.06 µM; in the assay on M14 melanoma, 1.91 µM; in the assay on NCI-H226 lung it was 2.9 µM; in the assay with MDA-MB-231 breast it was 1.85 µM; in the assay on MCF7 breast, 1.8 µM. Besides, the GI50 in the assay on SF-539 CNS is 1.55 µM; in the assay on MOLT-4 leukemia, 2.98 µM; in the assay on NCI-H23 lung, 2 µM; with HCT-15 colon, 1.59 µM. The TGI stood at 3.13 µM with SF-295 CNS; 5.87 µM in the assay with A498 renal; 4.11 µM in the assay on M14 melanoma; 8.53 µM with NCI-H226 lung; 4.14 µM in the assay on MDA-MB-231 breast; 3.93 µM in the assay with MCF7 breast. The TGI in the assay with SF-539 CNS is 3.24 µM; in the assay with MOLT-4 leukemia, 13.4 µM; in the assay on NCI-H23 lung it was 5.06 µM; with HCT-15 colon, 3.09 µM.
For the compound `CC(C)C1=C2CCC3(C)C(CCC4C5C6OCC5(CCC6(C)C)CCC43C)C2(C)CC1` (centres undefined), the TGI in the assay on SF-295 CNS was 34.5 µM; in the assay on A498 renal, 36.7 µM; in the assay with M14 melanoma it was 41.6 µM; in the assay on NCI-H226 lung it was over 100 µM; in the assay on MDA-MB-231 breast, 37.3 µM; in the assay with MCF7 breast, 47.7 µM. Also, the TGI was determined as 32.9 µM in the assay with SF-539 CNS, 34.6 µM in the assay on MOLT-4 leukemia, 54.5 µM with NCI-H23 lung and 40.7 µM with HCT-15 colon.
With `O=[N+]([O-])c1ccc(CSCc2ccc(Cl)cc2)cc1`, the TGI in the assay on SF-295 CNS, with A498 renal, in the assay with M14 melanoma, in the assay on NCI-H226 lung, in the assay with MDA-MB-231 breast and with MCF7 breast was over 100 µM in each case. Further, the TGI with SF-539 CNS, in the assay on MOLT-4 leukemia, in the assay on NCI-H23 lung and with HCT-15 colon was over 100 µM in each case.
As for `O=C(Nc1ccc(Cl)c(Cl)c1)Nc1ccccc1O`, the GI50 was 3.06 µM with SF-295 CNS; 12.2 µM in the assay on A498 renal; 17.7 µM in the assay on M14 melanoma; 15.9 µM with NCI-H226 lung; 10 µM in the assay with MDA-MB-231 breast; 4.14 µM in the assay with MCF7 breast. For the same compound, the GI50 in the assay with SF-539 CNS is 12.4 µM; with MOLT-4 leukemia it was 3.15 µM; in the assay with NCI-H23 lung it was 2.98 µM; in the assay on HCT-15 colon, 4.46 µM. In addition, the TGI was determined as 11.3 µM in the assay on SF-295 CNS; 27.2 µM in the assay with A498 renal; 61.9 µM in the assay on M14 melanoma; 53.7 µM with NCI-H226 lung; 34.2 µM in the assay on MDA-MB-231 breast; 21.3 µM with MCF7 breast. For the same compound, the TGI turned out to be 30.4 µM with SF-539 CNS, 49.1 µM with MOLT-4 leukemia, 16.1 µM in the assay on NCI-H23 lung and 23.9 µM in the assay with HCT-15 colon.
With `CC1C(=O)OC2CC[N+]3([O-])CC=C(COC(=O)C(C)(O)C1(C)O)C23` (centres undefined), the TGI with SF-295 CNS, in the assay with A498 renal, in the assay on M14 melanoma, in the assay with NCI-H226 lung, with MDA-MB-231 breast and in the assay with MCF7 breast was over 100 µM in each case. The TGI with SF-539 CNS, in the assay on MOLT-4 leukemia, with NCI-H23 lung and in the assay on HCT-15 colon was over 100 µM in each case.
